In PMC8595653, “Activation of specific bitter taste receptors by olive oil phenolics and secoiridoids” (Scientific Reports, 2021):
“Also recorded” adds a separate entry of the source.

Experiments:
TAS2R8 = target: T1, TAS2R8 (Homo sapiens, UniProt Q9NYW2); test: Calcium mobilization functional assay, TAS2R8 co-expressed with Gα16-gust44 and GCaMP in HEK293E cells; format: cell-based; details: for potency and efficacy on TAS2R8 in words: concentration-response experiments, maximal concentration 10 mM for oleuropein; for times more potent than oleuropein: potency of bitter receptor activation relative to oleuropein (1)
T1 construct: first 45 amino acids of rat somatostatin type 3 receptor (SSTR3) export tag (N); expressed in transfected cells; host or cells: HEK293E
T1 sequence (Q9NYW2 1-309): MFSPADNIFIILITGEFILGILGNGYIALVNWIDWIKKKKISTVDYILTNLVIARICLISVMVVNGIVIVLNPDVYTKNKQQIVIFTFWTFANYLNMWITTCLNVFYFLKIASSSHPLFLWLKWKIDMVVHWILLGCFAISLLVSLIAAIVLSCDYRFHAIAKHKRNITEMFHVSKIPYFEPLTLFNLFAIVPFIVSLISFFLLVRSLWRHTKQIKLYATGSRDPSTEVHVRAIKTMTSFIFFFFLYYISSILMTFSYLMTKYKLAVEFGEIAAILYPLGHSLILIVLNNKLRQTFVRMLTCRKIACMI
Procedure: (§1) All constructs were confirmed by DNA sequencing.
(§2) Data from single dose experiments were collected as duplicates. […] Data represent mean ± SD.
(§3) To characterize the bitterness of olive oil phenolic compounds, we performed calcium mobilization experiments. The 25 bitter taste receptors, G protein chimera (Gα16-gus44), and the GCaMP calcium sensor[68] were transiently expressed in HEK293E cells. Twelve olive oil phenolic compounds (Fig. 1) were tested for bitter taster receptor activation (Fig. 3). […] Ligstroside aglycon, and Oleuropein aglycon activated TAS2R1, TAS2R8 and TAS2R14 receptors. To validate the single dose scanning results, we performed concentration–response experiments for all the compounds toward receptors TAS2R1, TAS2R8, and TAS2R14 that produced the most significant responses (Fig. 4).

TAS2R14 = target: T2, TAS2R14 (Homo sapiens, UniProt Q9NYV8); test: Calcium mobilization functional assay, TAS2R14 co-expressed with Gα16-gust44 and GCaMP in HEK293E cells; format: cell-based
T2 construct: first 45 amino acids of rat somatostatin type 3 receptor (SSTR3) export tag (N); expressed in transfected cells; host or cells: HEK293E
T2 sequence (Q9NYV8 1-317): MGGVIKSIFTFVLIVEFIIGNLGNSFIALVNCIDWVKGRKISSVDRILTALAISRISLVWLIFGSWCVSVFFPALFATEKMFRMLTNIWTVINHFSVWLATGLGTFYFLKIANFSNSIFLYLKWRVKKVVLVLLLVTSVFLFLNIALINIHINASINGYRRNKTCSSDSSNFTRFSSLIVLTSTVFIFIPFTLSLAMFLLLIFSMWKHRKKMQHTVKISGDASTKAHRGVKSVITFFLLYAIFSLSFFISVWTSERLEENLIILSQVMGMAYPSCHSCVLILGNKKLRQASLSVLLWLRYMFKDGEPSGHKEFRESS
Procedure: as §1, §2, §3

TAS2R1 = target: T3, TAS2R1 (Homo sapiens, UniProt Q9NYW7); test: Calcium mobilization functional assay, TAS2R1 co-expressed with Gα16-gust44 and GCaMP in HEK293E cells; format: cell-based
T3 construct: first 45 amino acids of rat somatostatin type 3 receptor (SSTR3) export tag (N); expressed in transfected cells; host or cells: HEK293E
T3 sequence (Q9NYW7 1-299): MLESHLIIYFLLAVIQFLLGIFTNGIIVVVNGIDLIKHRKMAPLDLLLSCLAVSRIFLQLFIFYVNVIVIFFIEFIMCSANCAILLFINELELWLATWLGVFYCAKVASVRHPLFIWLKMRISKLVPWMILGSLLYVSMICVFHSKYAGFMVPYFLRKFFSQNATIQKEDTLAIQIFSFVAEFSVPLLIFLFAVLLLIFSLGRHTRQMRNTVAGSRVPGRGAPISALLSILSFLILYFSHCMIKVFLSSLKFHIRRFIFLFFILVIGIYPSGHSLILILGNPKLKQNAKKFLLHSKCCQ
Procedure: as §1, §2, §3

TAS2R40 = target: T4, TAS2R40 (Homo sapiens, UniProt P59535); test: Calcium mobilization functional assay, TAS2R40; format: cell-based; details: 30 µM, versus empty pcDNA vector
T4 construct: first 45 amino acids of rat somatostatin type 3 receptor (SSTR3) export tag (N); expressed in transfected cells; host or cells: HEK293E
Description: as §1, §2

TAS2R46 = TAS2R46 (Homo sapiens, UniProt P59540); details: 300 µM, versus empty pcDNA vector
Procedure: (§4) 25 human TAS2R genes were subcloned into the pcDNA 3.1 vector, as previously descripted in the literature[44],[53]. The first 45 amino acids of the rat somatostatin type 3 receptor, which serves as a cell-surface-targeting signal, were added to the N-termini of the TAS2Rs to target them more efficiently to the cell surface. Herpes simplex virus (HSV) glycoprotein D epitopes were added to the carboxy termini of the receptors for immunocytochemistry. All constructs were confirmed by DNA sequencing.
(§5) HEK293E cells were cultured at 37 °C in DMEM (Thermo Fisher Scientific), supplemented with 10% fetal bovine serum (FBS) and 1% Penicillin Streptomycin. The cells were seeded onto 96-well plates (Clear Bottom Black Polystyrene Poly-D-Lysine Coated Microplates, Corning life sciences) at a density of 50,000 (in 100 μl DMEM) per well, and cultured at 37 °C for overnight. On the second day following seeding, the medium was changed to OPTI-MEM supplemented with 5% FBS (filtered) before co-transfection using Polyethylenimine (PEI) (1.6 μg/well) with plasmid DNAs encoding TAS2Rs (0.1 μg/well), Gα16-gust44 (0.06 μg/well) and the GCaMP calcium sensor (0.035 μg/well). After 24 h, the medium was changed to fresh OPTI-MEM supplemented with 5% FBS (filtered) and 0.1% Plasmocin (InvivoGen). […]

25 human TAS2Rs = test: Single dose scanning of phenolic compounds on the 25 bitter taste receptors (calcium mobilization, HEK293E); format: cell-based; details: single dose 300 µM, 25 TAS2Rs, N = 2
Procedure: as §1, §2, §3
Figure 3 Phenolic compound bitter taste activity tests on hTAS2Rs. Relative fluorescence signals caused by phenolic compound activation of the receptors and the empty vector as a negative control. The concentration of the compounds used was [300 µM], except for Ligstroside aglycon and Oleuropein aglycon [200 µM], oleuropein that was [3 mM]. The asterisks indicate significant differences tested by one-way ANOVA (***p < 0.0001) (N = 2). Data represent mean ± SD.

TAS2R38 = TAS2R38 (Homo sapiens, UniProt P59533); details: 1 mM, versus empty pcDNA vector
Procedure: as §4, §5

TAS2R20 = target: T5, TAS2R20 (Homo sapiens, UniProt P59543); test: Calcium mobilization functional assay, TAS2R20 (RTP3 and RTP4 co-expressed); format: cell-based; details: 10 mM, versus empty pcDNA vector
T5 construct: first 45 amino acids of rat somatostatin type 3 receptor (SSTR3) export tag (N); expressed in transfected cells; host or cells: HEK293E
Description: as §1, §2

TAS2R31 = target: T6, TAS2R31 (Homo sapiens, UniProt P59538); test: Calcium mobilization functional assay, TAS2R31; format: cell-based; details: 30 µM, versus empty pcDNA vector
T6 construct: first 45 amino acids of rat somatostatin type 3 receptor (SSTR3) export tag (N); expressed in transfected cells; host or cells: HEK293E
Description: as §1, §2

TAS2R43 = target: T7, TAS2R43 (Homo sapiens, UniProt P59537); test: Calcium mobilization functional assay, TAS2R43; format: cell-based; details: 30 µM, versus empty pcDNA vector
T7 construct: first 45 amino acids of rat somatostatin type 3 receptor (SSTR3) export tag (N); expressed in transfected cells; host or cells: HEK293E
Description: as §1, §2

TAS2R50 = target: T8, TAS2R50 (Homo sapiens, UniProt P59544); test: Calcium mobilization functional assay, TAS2R50; format: cell-based; details: 1 mM, versus empty pcDNA vector
T8 construct: first 45 amino acids of rat somatostatin type 3 receptor (SSTR3) export tag (N); expressed in transfected cells; host or cells: HEK293E
Description: as §1, §2

TAS2R30 = target: T9, TAS2R30 (Homo sapiens, UniProt P59541); test: Calcium mobilization functional assay, TAS2R30; format: cell-based; details: 300 µM, versus empty pcDNA vector
T9 construct: first 45 amino acids of rat somatostatin type 3 receptor (SSTR3) export tag (N); expressed in transfected cells; host or cells: HEK293E
Description: as §1, §2

TAS2R39 = target: T10, TAS2R39 (Homo sapiens, UniProt P59534); test: Calcium mobilization functional assay, TAS2R39; format: cell-based; details: 10 mM, versus empty pcDNA vector
T10 construct: first 45 amino acids of rat somatostatin type 3 receptor (SSTR3) export tag (N); expressed in transfected cells; host or cells: HEK293E
Description: as §1, §2

[1] = HEK293E, normalized to the highest response of TAS2R8 to oleuropein aglycon (100%), N = 3

T4 sequence (P59535 whole entry): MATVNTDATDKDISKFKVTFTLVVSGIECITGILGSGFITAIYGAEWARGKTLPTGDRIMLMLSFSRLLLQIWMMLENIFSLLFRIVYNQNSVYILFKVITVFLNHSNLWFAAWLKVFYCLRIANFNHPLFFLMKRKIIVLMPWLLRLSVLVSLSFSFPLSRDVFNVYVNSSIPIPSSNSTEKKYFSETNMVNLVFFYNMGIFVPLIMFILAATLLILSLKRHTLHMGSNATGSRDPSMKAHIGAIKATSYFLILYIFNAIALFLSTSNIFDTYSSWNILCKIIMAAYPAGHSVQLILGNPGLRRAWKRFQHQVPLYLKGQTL
T9 sequence (P59541 whole entry): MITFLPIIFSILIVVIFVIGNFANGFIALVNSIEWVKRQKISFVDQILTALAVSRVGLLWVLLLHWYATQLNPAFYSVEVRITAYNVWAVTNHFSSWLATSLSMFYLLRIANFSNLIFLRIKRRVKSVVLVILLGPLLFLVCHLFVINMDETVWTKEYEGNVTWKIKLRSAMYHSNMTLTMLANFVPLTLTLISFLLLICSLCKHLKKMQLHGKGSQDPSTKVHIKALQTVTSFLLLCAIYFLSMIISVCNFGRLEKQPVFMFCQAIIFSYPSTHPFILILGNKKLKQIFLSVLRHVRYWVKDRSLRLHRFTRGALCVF
T5 sequence (P59543 whole entry): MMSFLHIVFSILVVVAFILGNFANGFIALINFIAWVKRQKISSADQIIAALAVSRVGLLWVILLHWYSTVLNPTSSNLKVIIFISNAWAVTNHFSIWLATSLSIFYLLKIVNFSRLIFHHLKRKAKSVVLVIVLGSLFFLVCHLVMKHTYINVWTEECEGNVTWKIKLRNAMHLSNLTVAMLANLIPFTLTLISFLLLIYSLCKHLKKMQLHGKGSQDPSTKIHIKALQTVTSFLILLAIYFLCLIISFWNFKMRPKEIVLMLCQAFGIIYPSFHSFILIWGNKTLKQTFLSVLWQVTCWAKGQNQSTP
T6 sequence (P59538 whole entry): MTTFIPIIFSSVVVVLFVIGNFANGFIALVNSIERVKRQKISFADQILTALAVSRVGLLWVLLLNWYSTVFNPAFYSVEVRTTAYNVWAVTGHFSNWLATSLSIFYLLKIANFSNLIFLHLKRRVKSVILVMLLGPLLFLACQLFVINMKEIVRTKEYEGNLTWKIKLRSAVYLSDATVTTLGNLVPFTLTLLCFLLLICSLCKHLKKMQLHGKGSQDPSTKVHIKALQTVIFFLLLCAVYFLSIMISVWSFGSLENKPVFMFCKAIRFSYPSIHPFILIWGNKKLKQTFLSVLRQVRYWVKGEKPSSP
Chain of TAS2R38 (P59533 whole entry): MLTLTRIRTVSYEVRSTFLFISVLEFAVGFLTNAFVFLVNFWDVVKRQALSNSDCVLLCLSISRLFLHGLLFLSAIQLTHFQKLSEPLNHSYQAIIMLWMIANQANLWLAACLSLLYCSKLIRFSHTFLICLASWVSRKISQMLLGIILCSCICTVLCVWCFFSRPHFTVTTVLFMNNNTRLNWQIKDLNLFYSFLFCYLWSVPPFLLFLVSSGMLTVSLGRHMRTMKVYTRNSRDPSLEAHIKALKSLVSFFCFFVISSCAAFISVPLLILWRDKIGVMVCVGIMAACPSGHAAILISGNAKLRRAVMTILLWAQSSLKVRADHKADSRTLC
T7 sequence (P59537 whole entry): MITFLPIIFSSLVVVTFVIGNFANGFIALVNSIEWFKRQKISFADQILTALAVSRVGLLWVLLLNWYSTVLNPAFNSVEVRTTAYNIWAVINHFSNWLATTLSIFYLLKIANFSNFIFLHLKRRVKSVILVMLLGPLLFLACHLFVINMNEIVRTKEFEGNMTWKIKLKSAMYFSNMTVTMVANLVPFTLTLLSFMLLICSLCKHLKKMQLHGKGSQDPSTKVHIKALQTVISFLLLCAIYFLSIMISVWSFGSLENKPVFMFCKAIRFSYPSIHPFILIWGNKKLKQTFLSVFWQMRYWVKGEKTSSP
T10 sequence (P59534 whole entry): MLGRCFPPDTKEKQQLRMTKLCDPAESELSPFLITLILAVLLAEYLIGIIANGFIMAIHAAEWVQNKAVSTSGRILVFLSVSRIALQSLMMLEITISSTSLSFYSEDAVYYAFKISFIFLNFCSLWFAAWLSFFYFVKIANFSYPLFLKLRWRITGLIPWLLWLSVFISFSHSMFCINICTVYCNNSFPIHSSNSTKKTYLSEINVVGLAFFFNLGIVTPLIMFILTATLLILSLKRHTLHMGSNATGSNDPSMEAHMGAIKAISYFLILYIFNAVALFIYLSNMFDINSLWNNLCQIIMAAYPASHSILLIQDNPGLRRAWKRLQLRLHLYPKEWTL
Chain of TAS2R46 (P59540 whole entry): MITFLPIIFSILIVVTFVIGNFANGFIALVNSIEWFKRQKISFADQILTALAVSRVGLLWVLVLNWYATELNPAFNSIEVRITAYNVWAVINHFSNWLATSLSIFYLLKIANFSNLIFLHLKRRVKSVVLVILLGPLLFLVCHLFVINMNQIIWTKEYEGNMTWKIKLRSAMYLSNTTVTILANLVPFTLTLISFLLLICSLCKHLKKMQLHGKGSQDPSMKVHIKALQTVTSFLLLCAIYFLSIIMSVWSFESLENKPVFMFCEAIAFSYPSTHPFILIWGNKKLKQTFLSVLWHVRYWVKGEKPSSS
T8 sequence (P59544 whole entry): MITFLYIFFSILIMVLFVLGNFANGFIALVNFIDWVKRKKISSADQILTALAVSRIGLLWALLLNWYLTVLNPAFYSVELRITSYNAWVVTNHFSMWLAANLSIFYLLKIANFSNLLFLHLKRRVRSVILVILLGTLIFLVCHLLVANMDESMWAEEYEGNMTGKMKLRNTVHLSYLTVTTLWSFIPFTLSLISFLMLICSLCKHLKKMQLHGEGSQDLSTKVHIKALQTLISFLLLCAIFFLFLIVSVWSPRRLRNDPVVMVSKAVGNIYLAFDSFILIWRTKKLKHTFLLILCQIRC

COC(=O)C1=COC(C)C(C=O)C1CC(=O)O (stereo not shown) [Elenolic acid, elenolic acid]
potency and efficacy on TAS2R8 in words (TAS2R8): activated weakly and less potently; also recorded: activated TAS2R8 with lower potency | activation of TAS2R8 over background (TAS2R8; single dose 300 µM): activate | activation of TAS2R8 over background (TAS2R8; single dose 300 µM, listed as elenolic acid): activated significantly

C/C=C1/[C@H](O[C@@H]2O[C@H](CO)[C@@H](O)[C@H](O)[C@H]2O)OC=C(C(=O)OC)[C@H]1CC(=O)OCCc1ccc(O)c(O)c1 [Oleuropein, oleuropein]
potency lower compared to the aglycons (TAS2R8; TAS2R8): 50 fold | potency and efficacy on TAS2R8 in words (TAS2R8): high efficacy on TAS2R8 but very low potency and did not reach saturation | activation of TAS2R8 over background (TAS2R8; single dose 3 mM): activate; also recorded: activated TAS2R8 only | activation of TAS2R8 over background (TAS2R8; single dose 3 mM, listed as oleuropein): activated significantly

COC(=O)C1=COC(C)C(C=O)C1CC(=O)OCCc1ccc(O)c(O)c1 (single isomer, unassigned; isomer b) [Oleuropein aglycon (5b), oleuropein aglycon closed-type (isomer B)]
potency and efficacy on TAS2R14 in words (TAS2R14; concentration-response experiments, compared with ligstroside aglycon): even less potent and efficacious | activation of TAS2R14 (TAS2R14; single dose 200 µM): activated | Emax (TAS2R8; [1]): 100% | EC50 (TAS2R8; dose-response, N = 3, HEK293E): 57.3 µM | times more potent than oleuropein (TAS2R8): ~50 times | activation of TAS2R8 (TAS2R8; single dose 200 µM): activated | Emax (TAS2R1; [1]): 67.6% | EC50 (TAS2R1; dose-response, N = 3, HEK293E): 142 µM | activation of TAS2R1 (TAS2R1; single dose 200 µM): activated

CC(C)=CCC1C(=O)C(C(=O)CC(C)C)=C(O)C(O)(CC=C(C)C)C1=O (stereo not shown) [humulone]
activation of TAS2R40 (TAS2R40): activated

O=C1C[C@@H]2OCC=C3CN4CC[C@]56c7ccccc7N1[C@H]5[C@H]2[C@H]3C[C@H]46 [strychnine]
activation of TAS2R46 (TAS2R46): activated

COC(=O)C1=COC(C)C(C=O)C1CC(=O)OCCc1ccc(O)c(O)c1 (single isomer, unassigned; isomer a) [Oleuropein aglycon closed-type (5a), oleuropein aglycon closed-type (isomer A)]
times more potent than oleuropein (TAS2R8): ~50 times

CC=C1C(OC2OC(CO)C(O)C(O)C2O)OC=C(C(=O)OC)C1CC(=O)O (stereo not shown) [Oleoside-methylester, oleoside-11-methylester]
activation of any TAS2R (25 human TAS2Rs; listed as oleoside-11-methyl ester): failed to activate any bitter receptor | activation of any TAS2R (25 human TAS2Rs; listed as oleoside-methylester): did not activate any TAS2Rs; also recorded: failed to activate any TAS2Rs

CCCc1cc(=O)[nH]c(=S)[nH]1 [PROP, 6-n-propylthiouracil]
activation of TAS2R38 (TAS2R38): activated

O=C(O)c1cc(=O)c2c(OCC(O)COc3cccc4oc(C(=O)O)cc(=O)c34)cccc2o1 [cromolyn]
activation of TAS2R20 (TAS2R20): activated

COc1cccc2c1cc([N+](=O)[O-])c1c(C(=O)O)cc3c(c12)OCO3 [aristolochic acid]
activation of TAS2R31 (TAS2R31): activated | activation of TAS2R43 (TAS2R43): activated

C=C1CC[C@@H]2[C@](C)(CO)[C@H](O)CC[C@@]2(C)[C@@H]1C/C=C1/C(=O)OC[C@H]1O [andrographolide]
activation of TAS2R50 (TAS2R50): activated

C/C=C(/C=O)[C@@H](CC(=O)O)CC(=O)OCCc1ccc(O)cc1 [Oleocanthalic acid, oleocanthalic acid]
potency and efficacy on TAS2R8 in words (TAS2R8): activated TAS2R8 with lower potency | potency and efficacy on TAS2R8 in words (TAS2R8; listed as oleocanthalic acid): activated weakly and less potently | activation of TAS2R8 over background (TAS2R8; single dose 300 µM): activate | activation of TAS2R8 over background (TAS2R8; single dose 300 µM, listed as oleocanthalic acid): activated significantly

CC[N+](CC)(CC(=O)Nc1c(C)cccc1C)Cc1ccccc1 [denatonium, denatonium benzoate]
activation of TAS2R30 (TAS2R30): activated

C/C=C(/C=O)[C@@H](CC=O)CC(=O)OCCc1ccc(O)c(O)c1 [Oleacein, oleacein]
activation of any TAS2R (25 human TAS2Rs): did not activate any TAS2Rs; also recorded: did not show any activation of bitter receptors; also recorded: failed to activate any TAS2Rs

OCCc1ccc(O)c(O)c1 [Hydroxytyrosol, hydroxytyrosol]
activation of any TAS2R (25 human TAS2Rs): failed to activate any bitter receptor

OCCc1ccc(O)cc1 [Tyrosol, tyrosol]
activation of any TAS2R (25 human TAS2Rs): did not activate any TAS2Rs; also recorded: failed to activate any bitter receptor; also recorded: failed to activate any TAS2Rs

C/C=C(/C=O)C(CC(=O)OCCc1ccc(O)c(O)c1)/C(=C/O)C(=O)OC (stereo not shown) [Oleomissional, oleomissional]
potency and efficacy on TAS2R8 in words (TAS2R8): activated weakly and less potently | potency and efficacy on TAS2R8 in words (TAS2R8; listed as oleomissinal): activated TAS2R8 with lower potency | activation of TAS2R8 over background (TAS2R8; single dose 300 µM): activate | activation of TAS2R8 over background (TAS2R8; single dose 300 µM, listed as oleomissional): activated significantly

O=C(O)c1ccccc1Nc1cccc(C(F)(F)F)c1 [flufenamic acid, reference compound]
activation of TAS2R14 (TAS2R14; 0.3 mM, versus empty pcDNA vector): activated

CNC(=C[N+](=O)[O-])NCCSCc1ccc(CN(C)C)o1 [ranitidine]
activation of TAS2R39 (TAS2R39): activated
